Measured values taken from paper PMC10606064, “2-Aminothiazole-Flavonoid Hybrid Derivatives Binding to Tau Protein and Responsible for Antitumor Activity in Glioblastoma” (International Journal of Molecular Sciences, 2023).

Assays:
U87 shCTRL cells [1] = test: 2D random cell motility assay, U87 shCTRL; assay type: cell-based, human; details: 1.4 µM of compound 2, 1.6 µM of compound 9
Procedure: Cell motility was recorded by time-lapse videomicroscopy, as previously described. Briefly, cells were trypsinized and then seeded on Fibronectin pre-coated 24-well plates at 10^4 cells per well and allowed to adhere at 37 °C for 2 h in a 5% CO2 incubator. The cells were briefly rinsed in imaging medium (EMEM containing 10% FBS) to remove unattached cells before imaging. For conditions using compounds, agents were added to cells 15 min before launching the recording of the time-lapse series. Next, the plates were placed on an inverted wide-field Nikon microscope equipped with a 10× air objective (NA = 0.3) at 37 °C in 5% CO2. For all conditions, 61 frames of four fields were acquired using a CCD camera (Coolsnap HQ camera, Photometrics, Tucson, AZ, USA) driven by NIS elements AR 2.30 software (Nikon, Heidelberg, Germany). Migration tracks (n = 60–80 cells) were used to calculate total migration distance, distance to origin, velocity, and directional persistence of cell migration. Velocity was calculated as the total migration distance divided by 600 (600 min is total time of experiment). The distance to origin was determined as the net translocation between the initial and the final position. Directional persistence was calculated as the ratio of the distance to origin to that of the total distance migration.

[2] = system: U87 shCTRL and U87 shTau cells; test: Acridine orange spectrofluorometry (late autophagy); assay type: cell-based, human; details: both cell types, 5 µM, 48 h
Procedure: Briefly, 2.10^5 cells in exponential growth were seeded in 6-well plates. After 24 h, they were treated with 5 µM of compounds for 48 h. Trypsinized cells were harvested, counted, and then centrifuged (1200 rpm, 5 min, at RT). The cells pellet was resuspended in 2 mL of acridine orange diluted in complete culture media to a final concentration of 1 µg/mL and incubated for 15 min in the dark. Cells were then collected by centrifugation (1200 rpm, 5 min, at RT). The cells pellet was resuspended in PBS to a suspension concentration of 2.10^5 cells/mL. The suspension was transferred to a quartz cuvette, and then fluorescence emission of acridine orange was measured with a FluoroMax-3 spectrofluorometer (Horiba Jobin Yvon, Palaisseau, France) (excitation at 490 nm).

U251 glioblastoma cells = test: MTT cell viability assay, U251; assay type: cell-based; details: Homo sapiens, U-251, U251, 72 h, mean ± SEM, read-out: IC50 (metabolic activity)
Procedure: Cells harvested from sub-confluent monolayers were seeded at 15,000 cells per mL in a 96-well microtiter plate (Cambridge Technology, Labège, France) and cultured for 24 h under standard conditions. Standard medium was then replaced by fresh medium containing no drugs or compounds at different concentrations. The surviving cells were quantified after 72 h by the MTT assay, according to the manufacturer’s instructions. Briefly, 20 µL of 3-(4,5-diMethylThiazol-2-yl)-2,5diphenyl Tetrazolium bromide (MTT) solution at 5 mg.mL^−1 was added to cells for 3 h at 37 °C. The supernatant was discarded and replaced by 100 µL of dimethyl sulfoxide to dissolve formazan crystals. The absorbance was then read at 600 nm by spectrophotometry. For all concentrations of a given compound, cell viability was expressed as the percentage of the ratio between the mean absorbance of treated cells and the mean absorbance of untreated cells. Three independent experiments were performed, and the data were expressed as percentage of survival (using the untreated cells as 100%) and subjected to statistical analysis (n = 3). The IC50 was calculated using the Chou and Talalay method.

U87 shCTRL cells [3] = test: Mitotic index by high-content imaging, U87 shCTRL; assay type: cell-based, human; details: 48 h, 5-times IC50 of compounds
Procedure: For scoring mitotic indexes, an automated high-content screening confocal microscopy approach was employed to identify cells undergoing mitosis from a large population of cells. For this, cells nuclei were stained with DAPI. Briefly, fibronectin-coated clear-glass-bottom black 96-well imaging plates were seeded with 100 µL of cell suspension (60,000 cell.mL^−1) in each well, with both U87 shCTRL and U87 ShTau cell lines. Cells were treated with 5-times IC50 of compounds for 48 h, then they were fixated inside the palates with 4% formaldehyde (in PBS pH 7.4) for 20 min at room temperature, permeabilized with PBS-Triton X-100 0.5% for 10 min at room temperature. DNA was then stained with DAPI (10 µg.mL^−1) for 5 min at room temperature and in the darkness. After being washed, cells were kept in PBS at 4 °C and imaged while in PBS. Automated confocal microscopy was carried out using an Opera Phenix (PerkinElmer) high-content screening microscope using a 20× Air/0.4 NA air objective. For each condition, 6 wells were prepared and a total of 61 fields were acquired for each well. Image analysis was performed using Harmony high-content analysis v4.8 software and PhenoLOGIC Machine Learning technology, which uses a learn-by-example approach. As a first step, nuclei were segmented and multiple parameters for these nuclei were calculated using Harmony v4.8 software building blocks. After training, PhenoLOGIC Machine Learning then selects the best parameters to detect nuclei undergoing the M phase of mitosis. From this, the mitotic index of each condition was calculated by dividing the number of cells undergoing mitosis over the total number of cells.

Row | Compound | decrease in distance to origin (U87 shCTRL cells [1]) | decrease in velocity (U87 shCTRL cells [1]) | acridine orange fluorescence emission [2] | IC50 (U251 glioblastoma cells) | mitotic index (U87 shCTRL cells [3])
1 | Nc1nc2ccc3oc(-c4cccc(Oc5ccccc5)c4)cc(=O)c3c2s1 [Compound 2, 2-amino-7-(3-phenoxyphenyl)-9H-chromeno [6,5-d]thiazol-9-one] | 25% | 15% | shift to blue emission | 1700 ± 500 nM | no significant variation of mitotic indexes
2 | Nc1nc2ccc3oc(C(=O)O)cc(=O)c3c2s1 [Compound 5] |  |  | shift to blue emission | > 100000 nM | 2.47 ± 0.19%
